Assay [1] concerns Streptococcus pneumoniae. Briefly: Antibacterial activity against Streptococcus pneumoniae ATCC 49619 isolated from respiratory tract infected patients more than 65 years of age after 20 to 24 hrs by broth microdilution method. Type of assay: functional. Background: In broth dilution the organism is exposed to a series of concentrations in liquid medium.
Assay [2] deals with Streptococcus pneumoniae. Briefly: Antibacterial activity against Streptococcus pneumoniae ATCC 49619 isolated from respiratory tract infected patients within 2 years of age after 20 to 24 hrs by broth microdilution method. Type of assay: functional.
The subject of assay [3] is Moraxella catarrhalis. Description: Antibacterial activity against Moraxella catarrhalis isolated from respiratory tract infected patients after 20 to 24 hrs by broth microdilution method. The class given is functional.
Assay [4] relates to Streptococcus pneumoniae. Description: Antibacterial activity against Streptococcus pneumoniae ATCC 49619 isolated from respiratory tract infected patients with 6 to 14 years of age after 20 to 24 hrs by broth microdilution method. The class given is functional.
Assay [5] relates to Streptococcus pneumoniae. Briefly: Antibacterial activity against Streptococcus pneumoniae ATCC 49619 isolated from respiratory tract infected patients with 15 to 64 years of age after 20 to 24 hrs by broth microdilution method. The class given is functional.
Assay [6] concerns Streptococcus pneumoniae. Description: Antibacterial activity against penicillin-susceptible Streptococcus pneumoniae ATCC 49619 isolated from respiratory tract infected patients after 20 to 24 hrs by broth microdilution method. The class given is functional.
For assay [7], the system named is Streptococcus pneumoniae. Description: Antibacterial activity against Streptococcus pneumoniae ATCC 49619 isolated from respiratory tract infected inpatients after 20 to 24 hrs by broth microdilution method. Type of assay: functional.
Assay [8] relates to Streptococcus pneumoniae. Briefly: Antibacterial activity against Streptococcus pneumoniae ATCC 49619 isolated from respiratory tract infected male patients after 20 to 24 hrs by broth microdilution method. Type of assay: functional.
Assay [9] deals with Streptococcus pneumoniae. Description: Antibacterial activity against Streptococcus pneumoniae ATCC 49619 isolated from respiratory tract infected patients with 3 to 5 years of age after 20 to 24 hrs by broth microdilution method. The class given is functional.
For assay [10], the system named is Streptococcus pneumoniae. Description: Antibacterial activity against penicillin-intermediate Streptococcus pneumoniae ATCC 49619 isolated from respiratory tract infected patients after 20 to 24 hrs by broth microdilution method. Type of assay: functional.
Assay [11] concerns Streptococcus pneumoniae. Briefly: Antibacterial activity against Streptococcus pneumoniae ATCC 49619 isolated from respiratory tract infected outpatients after 20 to 24 hrs by broth microdilution method. The class given is functional.
The test system of assay [12] is Streptococcus pneumoniae. Briefly: Antibacterial activity against Streptococcus pneumoniae ATCC 49619 isolated from respiratory tract infected patients after 20 to 24 hrs by broth microdilution method. Type of assay: functional.
In assay [13] the test system is Streptococcus pneumoniae. Description: Antibacterial activity against penicillin-resistant Streptococcus pneumoniae ATCC 49619 isolated from respiratory tract infected patients after 20 to 24 hrs by broth microdilution method. Type of assay: functional.
In assay [14] the test system is Streptococcus pneumoniae. Description: Antibacterial activity against Streptococcus pneumoniae ATCC 49619 isolated from respiratory tract infected female patients after 20 to 24 hrs by broth microdilution method. Type of assay: functional.
The test system of assay [15] is Haemophilus influenzae. Description: Antibacterial activity against beta lactamase-positive Haemophilus influenzae […] isolated from respiratory tract infected patients assessed as susceptible isolates after 20 to 24 hrs by broth microdilution method. Type of assay: functional, ATCC 49247.
In assay [16] the test system is Streptococcus pneumoniae. Briefly: Antibacterial activity against penicillin-intermediate Streptococcus pneumoniae ATCC 49619 isolated from respiratory tract infected patients assessed as resistant isolates after 20 to 24 hrs by broth microdilution method. Type of assay: functional.
Assay [17] relates to Streptococcus pneumoniae. Briefly: Antibacterial activity against penicillin-susceptible Streptococcus pneumoniae ATCC 49619 isolated from respiratory tract infected patients assessed as susceptible isolates after 20 to 24 hrs by broth microdilution method. Type of assay: functional.
The test system of assay [18] is Streptococcus pneumoniae. Description: Antibacterial activity against penicillin-susceptible Streptococcus pneumoniae ATCC 49619 isolated from respiratory tract infected patients assessed as resistant isolates after 20 to 24 hrs by broth microdilution method. Type of assay: functional.
In assay [19] the test system is Haemophilus influenzae. Description: Antibacterial activity against Haemophilus influenzae […] isolated from respiratory tract infected patients after 20 to 24 hrs by broth microdilution method. Type of assay: functional. Particulars: ATCC 49247.
Assay [20] deals with Haemophilus influenzae. Description: Antibacterial activity against beta lactamase-negative Haemophilus influenzae […] isolated from respiratory tract infected patients assessed as susceptible isolates after 20 to 24 hrs by broth microdilution method. Type of assay: functional.
Assay [21] relates to Streptococcus pneumoniae. Briefly: Antibacterial activity against penicillin-intermediate Streptococcus pneumoniae ATCC 49619 isolated from respiratory tract infected patients assessed as susceptible isolates after 20 to 24 hrs by broth microdilution method. The class given is functional.
Assay [22] deals with Streptococcus pneumoniae. Description: Antibacterial activity against Streptococcus pneumoniae ATCC 49619 isolated from respiratory tract infected patients assessed as resistant isolates after 20 to 24 hrs by broth microdilution method. The class given is functional.
Assay [23] relates to Haemophilus influenzae. Briefly: Antibacterial activity against Haemophilus influenzae […] isolated from respiratory tract infected patients assessed as susceptible isolates after 20 to 24 hrs by broth microdilution method. Type of assay: functional, ATCC 49247.
The subject of assay [24] is Haemophilus influenzae. Briefly: Antibacterial activity against beta lactamase-positive Haemophilus influenzae […] isolated from respiratory tract infected patients after 20 to 24 hrs by broth microdilution method. Type of assay: functional. To be noted: ATCC 49247.
Assay [25] deals with Streptococcus pneumoniae. Description: Antibacterial activity against Streptococcus pneumoniae ATCC 49619 isolated from respiratory tract infected patients assessed as susceptible isolates after 20 to 24 hrs by broth microdilution method. The class given is functional.
For assay [26], the system named is Streptococcus pneumoniae. Description: Antibacterial activity against penicillin-resistant Streptococcus pneumoniae ATCC 49619 isolated from respiratory tract infected patients assessed as susceptible isolates after 20 to 24 hrs by broth microdilution method. Type of assay: functional.
Assay [27] concerns Streptococcus pneumoniae. Description: Antibacterial activity against penicillin-resistant Streptococcus pneumoniae ATCC 49619 isolated from respiratory tract infected patients assessed as resistant isolates after 20 to 24 hrs by broth microdilution method. Type of assay: functional.
Assay [28] concerns Haemophilus influenzae. Description: Antibacterial activity against beta lactamase-negative Haemophilus influenzae […] isolated from respiratory tract infected patients after 20 to 24 hrs by broth microdilution method. Type of assay: functional. Particulars: ATCC 49247.

Converted amounts (≈) assume the structure as drawn.

On to `C[C@@H](O)[C@H]1C(=O)N2C(C(=O)O)=C([C@H]3CCCO3)S[C@H]12` [FAROPENEM], for which the MIC90 was 0.5 µg/mL (≈ 1.75 µM) in [1]; 1 µg/mL (≈ 3.5 µM) in assay [2]; 0.5 µg/mL (≈ 1.75 µM) in assay [3]; 0.5 µg/mL (≈ 1.75 µM) in assay [4]; 0.5 µg/mL (≈ 1.75 µM) in assay [5]; 0.015 µg/mL (≈ 0.0526 µM) in assay [6]. Moreover, the MIC90 in [7] is 0.5 µg/mL (≈ 1.75 µM); in assay [8] it was 0.5 µg/mL (≈ 1.75 µM); in assay [9] it was 1 µg/mL (≈ 3.5 µM); in [10], 0.25 µg/mL (≈ 0.876 µM); in assay [11] it was 0.5 µg/mL (≈ 1.75 µM); in assay [12], 0.5 µg/mL (≈ 1.75 µM). In addition, the MIC90 in assay [13] came out at 2 µg/mL (≈ 7.01 µM); in assay [14], 0.5 µg/mL (≈ 1.75 µM). Moreover, the MIC50 in [3] was 0.25 µg/mL (≈ 0.876 µM); in [6], 0.008 µg/mL (≈ 0.028 µM); in assay [10] it was 0.06 µg/mL (≈ 0.21 µM); in [12], 0.015 µg/mL (≈ 0.0526 µM); in assay [13] it was 1 µg/mL (≈ 3.5 µM).
With `C[C@@H](O)[C@H]1C(=O)N2C(C(=O)O)=C(S[C@@H]3CN[C@H](C(=O)N(C)C)C3)[C@H](C)[C@H]12` [MEROPENEM], the Activity is reported as 100% in assay [15]; 0% in [16]; 100% in assay [17]; 0% in assay [18]; 99.6% in assay [20]; 93.2% in assay [21]. The Activity in assay [22] turned out to be 9.5%; in assay [23], 99.7%; in [25] it was 83.2%; in assay [26], 4.5%; in [27], 59.5%. The MIC50 in [3] was at most 0.004 µg/mL; in [19], 0.03 µg/mL (≈ 0.0782 µM); in assay [6], 0.015 µg/mL (≈ 0.0391 µM); in assay [24] it was 0.03 µg/mL (≈ 0.0782 µM); in assay [10], 0.06 µg/mL (≈ 0.156 µM); in assay [12] it was 0.015 µg/mL (≈ 0.0391 µM). In addition, the MIC50 in assay [13] is 1 µg/mL (≈ 2.61 µM); in assay [28] it was 0.06 µg/mL (≈ 0.156 µM). Moreover, the MIC90 in [3] came out at 0.008 µg/mL (≈ 0.0209 µM); in [19] it was 0.12 µg/mL (≈ 0.313 µM); in assay [6] it was 0.015 µg/mL (≈ 0.0391 µM); in [24], 0.06 µg/mL (≈ 0.156 µM); in assay [10], 0.25 µg/mL (≈ 0.652 µM); in assay [12] it was 0.5 µg/mL (≈ 1.3 µM). Moreover, the MIC90 in assay [13] came out at 1 µg/mL (≈ 2.61 µM); in [28], 0.12 µg/mL (≈ 0.313 µM).

These data come from ChEMBL document CHEMBL1151433, “National and regional assessment of antimicrobial resistance among community-acquired respiratory tract pathogens identified in a 2005-2006 U.S. Faropenem surveillance study” (2007).
